Reference: patent publication US20070014825A1, “Ant bait attractive to many species of ants and useful in their rapid control” (priority 2005, published 2007)

What was measured:
ants = test: Repulsion or loss of attractant activity of bait additives to ants; assay type: in vivo; conditions: trace amounts added to ant baits
Carpenter Ant = test: Liquid carpenter ant bait placed on ant trail: distance traveled after ingestion and kill; assay type: in vivo, Carpenter Ant (Genus Componatus)
Method: The above liquid carpenter ant bait was not formulated with a fragrance or dye, although both these additives may can be added. Soak the liquid ant bait in an absorbent wick, cotton ball or tissue and place on ant trail.
A carpenter ant ingested bait 7a for approximately 20 minutes, walked approximately 1.5-2 feet and was killed. Another carpenter ant ingested bait 7b for approximately 20 minutes, walked 20-30 feet, disappearing in the brush.
The ant baits of the above examples were tested in their natural environment where the particular ants were found. The baits were distributed in small amounts in the areas where the ants were seen to be active. All of the baits were readily accepted by the various ants. Gradually in all of the examples the numbers of ants in the treated areas was reduced to the point that none could be found.

SMILES	Loss in attractant activity of ant bait (ants)	Time after Bait Ingestion at which ant disappeared (kill not observed) (Carpenter Ant; Level of toxicant in Bait 0.2%)	Time of Ingestion of Bait by Ant (Carpenter Ant; Level of toxicant in Bait 0.2%)	Distance Traveled (Carpenter Ant; Level of toxicant in Bait 0.2%, ant disappeared)	Nest Killed (Carpenter Ant; Level of toxicant in Bait 0.2%, entire nest killed)	Distance Traveled (Carpenter Ant; Level of toxicant in Bait 1.2%)	Nest Killed (Carpenter Ant; Level of toxicant in Bait 1.2%)	Time Ant Killed after Bait Ingestion (Carpenter Ant; Level of toxicant in Bait 1.2%)	Time of Ingestion of Bait by Ant (Carpenter Ant; Level of toxicant in Bait 1.2%)
O=c1[nH]sc2ccccc12 [1,2-benzisothiazolin-3-one]	Little or no loss in attractant activity								
COP(=O)(NC(C)=O)SC (stereo not drawn) [acephate]		after 35-40 minutes	˜20 minutes	20-30 feet	Yes	1.5-2 feet	No	˜22-23 minutes	˜20 minutes
